Test results from patent US6242216A, “Nucleic acids encoding a functional human purinoreceptor P2X2 and P2X4, and methods of production and use thereof” (Abbott Laboratories, priority 1998, dated 2001).
Where “and” joins values, the source holds several entries; their conditions need not be identical. Identical values can stand only once. Like-named read-outs stand apart in the source and are kept apart here.

Key:
hP2X2a receptors = target: T1, hP2X2a receptors (Homo sapiens, UniProt Q9UBL9); assay: Two-electrode voltage-clamp of Xenopus oocytes expressing hP2X2a receptors; type: cell-based
T1 construct: expressed in transfected cells; host or cells: Xenopus laevis oocytes, cytoplasmic injection of 50 ng in vitro transcribed RNA, one subtype per cell
T1 sequence (Q9UBL9 1-471): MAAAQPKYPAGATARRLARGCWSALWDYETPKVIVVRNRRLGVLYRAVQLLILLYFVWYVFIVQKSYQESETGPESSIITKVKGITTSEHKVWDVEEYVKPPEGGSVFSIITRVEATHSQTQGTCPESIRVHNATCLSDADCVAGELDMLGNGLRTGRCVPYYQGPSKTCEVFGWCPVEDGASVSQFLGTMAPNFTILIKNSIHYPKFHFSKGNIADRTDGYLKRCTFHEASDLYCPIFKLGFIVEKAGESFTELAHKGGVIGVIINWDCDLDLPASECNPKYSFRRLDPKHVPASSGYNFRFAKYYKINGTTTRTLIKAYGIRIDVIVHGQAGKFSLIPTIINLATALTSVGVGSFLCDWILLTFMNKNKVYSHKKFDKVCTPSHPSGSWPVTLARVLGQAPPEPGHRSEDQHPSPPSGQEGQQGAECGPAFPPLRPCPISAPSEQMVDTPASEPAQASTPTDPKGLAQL
Method: (§1) To assess function of the human P2X2 receptors, RNA was synthesized from the clones using the T7 bacterial promoter present on the pCRscript vector and reagents from Ambion (Message Machine; Ambion, Inc., Austin Tex.).
(§2) Adult female frogs (Xenopus laevis) were anesthetized with 0.2% tricaine before surgery. During surgery, sections of one ovary were removed and oocytes were denuded of overlying follicle cells by agitation for 1-2 hours in 2 mg/ml collagenase (Sigma type IA) in low-Ca^2+ Barth's solution containing (in mM): 88 NaCl, 2.5 KCl, 1.0 MgCl2 10 Na-HEPES (pH 7.4) plus 100 μg/ml gentamicin. Selection of stage V and VI oocytes was begun after approximately 50% of the cells were denuded. Cytoplasmic injections of 50 ng hP2X2a-d RNA were performed on denuded oocytes using a glass microelectrode. Only one receptor subtype RNA was injected per cell. Oocytes were used for recording 1-2 days after injection and were maintained at 16-19° C. in normal Barth's solution (incubation medium in mM): 90 NaCl, 1.0 KCl, 0.66 NaNO3, 0.74 CaCl2, 0.82 MgCl2, 2.4 NaHCO3, 2.5 Na-pyruvate, 10 Na-HEPES (pH 7.4) plus 100 μg/ml gentamicin.
(§3) The standard recording solution contained (in mM): 96 NaCl, 2.0 KCl, 1.8 BaCl2, 1.0 MgCl2, 5.0 Na-pyruvate, and 5.0 Na-HEPES (pH 7.4). BaCl2 was replaced with CaCl2 (1 mM) in some experiments without significant effects on the pharmacological properties of the receptors. All oocyte solutions were diluted in distilled H2 O from 10×stock solutions. Concentrated stocks of agonists and antagonists were made in distilled H2 O and then serially diluted in recording solution to desired final concentrations. All chemicals and agonists (ATP and α,βme-ATP) were obtained from Sigma Chemical Company.
(§4) Transmembrane currents were recorded using two-electrode voltage-clamp techniques with an Axoclamp-2 A amplifier, and were collected and analyzed using pCLAMP software (Axon Instruments). Electrodes (1.5-2.0 M'.OMEGA.) were filled with 120 mM KCl. Responses to ATP and α,βme-ATP were routinely recorded at room temperature while the oocyte membrane was voltage-clamped at -60 mV. […]

hP2X2b receptors = target: T2, hP2X2b receptors (Homo sapiens, UniProt Q9UBL9); assay: Two-electrode voltage-clamp of Xenopus oocytes expressing hP2X2b receptors; type: cell-based
T2 construct: expressed in transfected cells; host or cells: Xenopus laevis oocytes, cytoplasmic injection of 50 ng in vitro transcribed RNA, one subtype per cell
T2 sequence (Q9UBL9 1-404 isoform Q9UBL9-2): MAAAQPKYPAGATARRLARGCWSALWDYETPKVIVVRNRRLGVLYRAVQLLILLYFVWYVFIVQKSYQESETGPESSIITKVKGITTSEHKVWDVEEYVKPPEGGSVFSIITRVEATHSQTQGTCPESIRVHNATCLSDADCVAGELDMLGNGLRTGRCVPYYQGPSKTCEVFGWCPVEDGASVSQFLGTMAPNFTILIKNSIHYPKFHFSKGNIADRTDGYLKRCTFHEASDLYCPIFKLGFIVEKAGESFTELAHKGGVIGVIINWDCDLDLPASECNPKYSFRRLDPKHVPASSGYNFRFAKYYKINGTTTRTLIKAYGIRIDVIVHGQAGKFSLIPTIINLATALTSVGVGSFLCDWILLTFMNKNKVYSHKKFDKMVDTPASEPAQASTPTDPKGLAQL
Method: as §1, §2, §3, §4

hP2X2c = assay: Two-electrode voltage-clamp of Xenopus oocytes injected with hP2X2c RNA; type: cell-based, human; settings: 30 μM ATP, transient external application
Method: as §1
as §2, with “Oocytes were used for recording 1-2 days after injection and were maintained at 16-19° C. in normal Barth's solution (incubation medium in mM): 90 NaCl, 1.0 KCl, 0.66 NaNO3, 0.74 CaCl2, 0.82 MgCl2, 2.4 NaHCO3, 2.5 Na-pyruvate, 10 Na-HEPES (pH 7.4) plus 100 μg/ml gentamicin.” left out
as §4, with “Electrodes (1.5-2.0 M'.OMEGA.) were filled with 120 mM KCl.” left out

hP2X2d = assay: Two-electrode voltage-clamp of Xenopus oocytes injected with hP2X2d RNA; type: cell-based, human; settings: 30 μM ATP, transient external application
Method: as §1
as §2, with “Oocytes were used for recording 1-2 days after injection and were maintained at 16-19° C. in normal Barth's solution (incubation medium in mM): 90 NaCl, 1.0 KCl, 0.66 NaNO3, 0.74 CaCl2, 0.82 MgCl2, 2.4 NaHCO3, 2.5 Na-pyruvate, 10 Na-HEPES (pH 7.4) plus 100 μg/ml gentamicin.” left out
as §4, with “Electrodes (1.5-2.0 M'.OMEGA.) were filled with 120 mM KCl.” left out

human P2X4 receptor = target: T3, human P2X4 receptor (Homo sapiens, UniProt Q99571); assay: Two-electrode voltage-clamp of Xenopus oocytes expressing recombinant human P2X4 receptors; type: cell-based
T3 construct: expressed in transfected cells; host or cells: Xenopus laevis oocytes, nuclear injection of P2X4-pCDNA3.1 DNA (10 ng) or cytoplasmic injection of RNA (50 ng)
T3 sequence (Q99571 1-388): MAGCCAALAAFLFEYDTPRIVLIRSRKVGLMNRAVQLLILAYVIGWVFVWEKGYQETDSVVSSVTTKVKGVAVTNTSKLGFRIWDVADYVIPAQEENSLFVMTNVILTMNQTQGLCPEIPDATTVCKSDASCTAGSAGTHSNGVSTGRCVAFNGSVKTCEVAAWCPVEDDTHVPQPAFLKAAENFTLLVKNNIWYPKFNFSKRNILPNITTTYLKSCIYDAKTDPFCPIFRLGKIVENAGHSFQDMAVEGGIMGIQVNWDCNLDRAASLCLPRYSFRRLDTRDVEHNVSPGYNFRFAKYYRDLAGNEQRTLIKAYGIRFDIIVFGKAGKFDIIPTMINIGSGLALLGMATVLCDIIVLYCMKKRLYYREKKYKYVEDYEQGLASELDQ
Method: Responses were measured at a holding potential of -60 mV in modified Barth's solution containing 10 mM BaCl2 and lacking CaCl2 and MgCl2. However, in some experiments, the cell potential was intentionally varied in order to determine the response current-voltage relationship. Agonist was applied briefly using a computer-controlled solenoid valve and a push/pull applicator positioned to within 200-400 μm from the oocyte. Responses were recorded by computer in synchrony with agonist application. Antagonists were included with agonist in the push/pull applicator and were applied to the bath by superfusion for at least 3 minutes before application of agonist. Responses were quantified by measuring the peak amplitude.
The clone was grown up and prepared in large scale using the QlAgen maxiprep DNA preparation system according to the manufacturer's instructions. The DNA was ethanol precipitated and resuspended in TE buffer. For RNA production, the P2X4 -pCNDA3.1 cvonstruct was linearized by digestion with the restriction enzyme Notl and P2X4 messenger RNA was produced using the T7 promoter in this vector and the Ambion mMessage mMachine in vitro transcription kit according to the manufacturer's instructions.
For functional analysis of human P2X4 receptors, 10 ng of human P2X4 receptor DNA prepared as described above was injected into the nucleus of Xenopus oocytes. Alternatively, 50 ng of human P2X4 receptor RNA prepared as described above was injected into the ooxyte cytoplasm. Oocytes were incubated in normal Barth's solution containing 100 μg/ml gentamicin for 2-7 days following injection. The response to 10 μM ATP was then recorded.

Nc1ncnc2c1ncn2[C@@H]1O[C@H](COP(=O)(O)OP(=O)(O)OP(=O)(O)O)[C@@H](O)[C@H]1O [ATP]
Hill coefficient (nH) (hP2X2a receptors; oocytes expressing hP2X2a, four cells): 1.5 | EC50 (hP2X2a receptors; oocytes expressing hP2X2a, four cells, -60 mV, read-out: mean ATP EC50 (peak inward current)): 16 µM | Hill coefficient (nH) (hP2X2b receptors; oocytes expressing hP2X2b, three cells): 1.5 | EC50 (hP2X2b receptors; oocytes expressing hP2X2b, three cells, -60 mV, read-out: mean ATP EC50 (peak inward current)): 20 µM | agonist effect on receptor current (hP2X2c): had no effect | agonist effect on receptor current (hP2X2d): had no effect | EC50 (human P2X4 receptor; DNA-injected oocytes, concentration-response 0.1-1000 μM ATP): ~2000 nM and 1000 to 2000 nM | EC50 (human P2X4 receptor; RNA-injected oocytes, read-out: ATP EC50): 1000 to 2000 nM | mixed-conductance cation current on extracellular application of ATP (human P2X4 receptor; oocytes injected with human P2X4 receptor DNA): 100-1000 nA

Cc1ccc(C(=O)Nc2ccc(S(=O)(=O)O)c3cc(S(=O)(=O)O)cc(S(=O)(=O)O)c23)cc1NC(=O)c1cccc(NC(=O)Nc2cccc(C(=O)Nc3cc(C(=O)Nc4ccc(S(=O)(=O)O)c5cc(S(=O)(=O)O)cc(S(=O)(=O)O)c45)ccc3C)c2)c1 [suramin]
antagonism of ATP-induced currents (human P2X4 receptor; DNA-injected oocytes, suramin 10 μM, ATP 10 μM): failed to depress | antagonism of ATP responses (human P2X4 receptor; RNA-injected oocytes, suramin 1 μM, ATP 3 μM): failed to depress | antagonism of ATP responses (human P2X4 receptor; RNA-injected oocytes, suramin 10 μM, ATP 3 μM): failed to depress | remaining activity at 100 µM (human P2X4 receptor; RNA-injected oocytes, suramin 100 μM, ATP 3 μM, read-out: ATP response remaining, % of control): ~80%

Nc1ncnc2c1ncn2[C@@H]1O[C@H](COP(=O)(O)CP(=O)(O)OP(=O)(O)O)[C@@H](O)[C@H]1O [αβMe-ATP, α,β-methylene-ATP]
agonist effect on receptor current (hP2X2a receptors; 100 μM agonist, hP2X2a): had no effect | agonist effect on receptor current (hP2X2b receptors; 100 μM agonist, hP2X2b): had no effect | Emax (human P2X4 receptor; RNA-injected oocytes, read-out: maximal current relative to maximal ATP current): 20 to 25%
